pKi: −log10 of the molar value. Where a name gives a salt, the structure may show the parent alone.
How the values were obtained:
[1] = target: T1, human dopamine D3 receptors (Homo sapiens, UniProt P35462); assay: Dopamine D3 receptor binding, [125I]-iodosulpride displacement; conditions: membranes of HEK-293 cells expressing human D3 receptor; 0.1 nM [125I]-iodosulpride
T1 construct: expressed in transfected cells; host or cells: HEK-293
Protocol: (§1) The substance to be tested was either dissolved in methanol/Chremophor® (BASF-AG) or in dimethyl sulfoxide and then diluted with water to the desired concentration.
(§2) Each assay mixture was run in triplicate.
The incubation buffer contained 50 mM tris, 120 mM NaCl, 5 mM KCl, 2 mM CaCl2, 2 mM MgCl2 and 0.1% bovine serum albumin, 10 μM quinolone and 0.1% ascorbic acid (prepared fresh daily). The buffer was adjusted to pH 7.4 with HCl.
(§3) After having been incubated at 25° C. for 60 minutes, the assay mixtures were filtered through a Whatman GF/B glass fiber filter under vacuum using a cell collecting device. The filters were transferred to scintillation viols using a filter transfer system. After 4 ml of Ultima Gold® (Packard) have been added, the samples were shaken for one hour and the radioactivity was then counted in a Beta-Counter (Packard, Tricarb 2000 or 2200CA). The cpm values were converted into dpm using a standard quench series and the program belonging to the instrument.
(§4) The inhibition curves were analyzed by means of iterative nonlinear regression analysis using the Statistical Analysis System (SAS) which is similar to the “LIGAND” program described by Munson and Rodbard.

[2] = target: T2, human dopamine D2L receptors (long isoform) (Homo sapiens, UniProt P14416); assay: Dopamine D2L receptor binding, [125I] iodospiperone displacement; conditions: selectivity ratio of receptor binding constants, D2L versus D3
T2 construct: expressed in transfected cells; host or cells: HEK-293
Protocol: as §1, §2
The incubation buffer contained 50 mM tris, 120 mM NaCl, 5 mM KCl, 2 mM CaCl2, 2 mM MgCl2 and 0.1% bovine serum albumin. The buffer was adjusted to pH 7.4 with HCl.
as §3, §4

T2 sequence (P14416 whole entry, canonical isoform): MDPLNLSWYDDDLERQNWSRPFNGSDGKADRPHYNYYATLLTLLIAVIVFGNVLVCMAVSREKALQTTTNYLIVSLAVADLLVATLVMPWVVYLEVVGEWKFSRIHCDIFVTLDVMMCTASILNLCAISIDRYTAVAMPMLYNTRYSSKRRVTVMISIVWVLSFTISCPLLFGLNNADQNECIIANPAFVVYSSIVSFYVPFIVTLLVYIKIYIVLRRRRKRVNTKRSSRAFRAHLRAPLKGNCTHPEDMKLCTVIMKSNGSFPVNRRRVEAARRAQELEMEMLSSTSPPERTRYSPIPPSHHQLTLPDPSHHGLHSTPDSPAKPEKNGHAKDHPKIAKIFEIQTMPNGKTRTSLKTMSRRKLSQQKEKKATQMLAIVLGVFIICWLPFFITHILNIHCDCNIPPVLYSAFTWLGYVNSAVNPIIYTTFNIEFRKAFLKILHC
T1 sequence (P35462 whole entry): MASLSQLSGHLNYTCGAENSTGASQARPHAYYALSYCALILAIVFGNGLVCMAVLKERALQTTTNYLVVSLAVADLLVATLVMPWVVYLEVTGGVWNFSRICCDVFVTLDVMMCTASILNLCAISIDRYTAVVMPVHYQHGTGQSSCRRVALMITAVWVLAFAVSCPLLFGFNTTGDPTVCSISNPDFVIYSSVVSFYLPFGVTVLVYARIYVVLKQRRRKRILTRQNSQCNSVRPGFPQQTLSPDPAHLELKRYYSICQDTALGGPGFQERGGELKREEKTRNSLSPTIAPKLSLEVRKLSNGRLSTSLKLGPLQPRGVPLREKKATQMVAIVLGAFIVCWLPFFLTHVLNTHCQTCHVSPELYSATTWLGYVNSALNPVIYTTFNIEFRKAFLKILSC

Row | pKi [1] | Ki(D2)*/Ki(D3)* [2] | Structure (SMILES)
1 | 8.00 to 9.00 | ++ (between 50 and 100) | CCCNCCOc1ccc(NS(=O)(=O)c2ccc(CCF)cc2)c(OC)n1 [Example 6, 4-(2-Fluoro-ethyl)-N-[2-methoxy-6-(2-propylamino-ethoxy)-pyridin-3-yl]-benzenesulfonamide×HCl]
2 | 8.00 to 9.00 | + (between 10 and 50) | COc1nc(OCCN2CCCC2)ccc1NS(=O)(=O)c1ccc(C(C)C(F)(F)F)cc1 (stereo not drawn) [Example 18, N-[2-Methoxy-6-(2-pyrrolidin-1-yl-ethoxy)-pyridin-3-yl]-4-(2,2,2-trifluoro-1-methyl-ethyl)-benzenesulfonamide]
3 | > 9.00 | ++++ (>150) | CCCNCCOc1ccc(NS(=O)(=O)c2ccc(C(C)C)cc2)c(C)n1 [Example 29, 4-Isopropyl-N-[2-methyl-6-(2-propylamino-ethoxy)-pyridin-3-yl]-benzenesulfonamide×HCl]
4 | 6.82 to 7.30 | + (between 10 and 50) | COc1nc(OC2CCNC2)ccc1NS(=O)(=O)c1ccc(C(C)C)cc1 (stereo not drawn) [Example 13, 4-Isopropyl-N-[2-methoxy-6-(pyrrolidin-3-yloxy)-pyridin-3-yl]-benzenesulfonamide×HCl]
5 | > 9.00 | ++++ (>150) | CCCNCCOc1ccc(NS(=O)(=O)c2ccc([C@@H](C)CF)cc2)c(OC)n1 [Example 11, 4-((R)-2-Fluoro-1-methyl-ethyl)-N-[2-methoxy-6-(2-propylamino-ethoxy)-pyridin-3-yl]-benzenesulfonamide×HCl]
6 | 8.00 to 9.00 | + (between 10 and 50) | CCCNCCOc1ncc(NS(=O)(=O)c2ccc(C(C)C)cc2)c(OC)n1 [Example 20, 4-isopropyl-N-[4-methoxy-2-(2-propylamino-ethoxy)-pyrimidin-5-yl]-benzenesulfonamide]
7 | 8.00 to 9.00 | ++ (between 50 and 100) | CCCNCCOc1ccc(NS(=O)(=O)c2ccc(C(C)C(F)(F)F)cc2)c(OC)n1 (stereo not drawn) [Example 3, N-[2-Methoxy-6-(2-propylamino-ethoxy)-pyridin-3-yl]-4-(2,2,2-trifluoro-1-methylethyl)-benzenesulfonamide×HCl]
8 | 8.00 to 9.00 | + (between 10 and 50) | COc1nc(OCCN2CCCC2)ccc1NS(=O)(=O)c1ccc(C(C)C)cc1 [Example 16, 4-Isopropyl-N-[2-methoxy-6-(2-pyrrolidin-1-yl-ethoxy)-pyridin-3-yl]-benzenesulfonamide×HCl]
9 | 8.00 to 9.00 | +++ (between 100 and 150) | Cc1nc(OC[C@@H]2CCCN2)ccc1NS(=O)(=O)c1ccc(C(C)C)cc1 [Example 43, 4-Isopropyl-N-[2-methyl-6-((S)-1-pyrrolidin-2-ylmethoxy)-pyridin-3-yl]-benzenesulfonamide×HCl]
10 | 8.00 to 9.00 | +++ (between 100 and 150) | COc1nc(OC[C@H]2CCCN2)ccc1NS(=O)(=O)c1ccc(-c2cnco2)cc1 [Example 27, N-[2-Methoxy-6-((R)-1-pyrrolidin-2-ylmethoxy)-pyridin-3-yl]-4-oxazol-5-yl-benzenesulfonamide×HCl]
11 | > 9.00 | ++ (between 50 and 100) | CCCNCCOc1ccc(NS(=O)(=O)c2ccc(C(C)C)cc2)c(OC)n1 [Example 4, 4-Isopropyl-N-[2-methoxy-6-(2-propylamino-ethoxy)-pyridin-3-yl]-benzenesulfonamide×HCl]
12 | 8.00 to 9.00 | ++ (between 50 and 100) | COc1nc(OCCN2CCCC2)ccc1NS(=O)(=O)c1ccc([C@@H](C)CF)cc1 [Example 17, 4-((R)-2-Fluoro-1-methyl-ethyl)-N-[2-methoxy-6-(2-pyrrolidin-1-yl-ethoxy)-pyridin-3-yl]-benzenesulfonamide]

Second part, the compound before the results:

Row | Structure (SMILES) | pKi [1] | Ki(D2)*/Ki(D3)* [2]
13 | CCCNCCOc1ccc(NS(=O)(=O)c2ccc(-c3cnco3)cc2)c(C)n1 [Example 36, N-[2-Methyl-6-(2-propylamino-ethoxy)-pyridin-3-yl]-4-oxazol-5-yl-benzenesulfonamide×HCl] | 7.30 to 8.00 | ++++ (>150)
14 | CCCNCCOc1ccc(NS(=O)(=O)c2ccc([C@@H](C)CF)cc2)c(C)n1 [Example 34, 4-((R)-2-Fluoro-1-methyl-ethyl)-N-[2-methyl-6-(2-propylamino-ethoxy)-pyridin-3-yl]-benzenesulfonamide×HCl] | 8.00 to 9.00 | ++++ (>150)
15 | CCCNCCOc1ccc(NS(=O)(=O)c2ccc(-c3cnco3)cc2)c(OC)n1 [Example 7, N-[2-Methoxy-6-(2-propylamino-ethoxy)-pyridin-3-yl]-4-oxazol-5-yl-benzenesulfonamide×HCl] | > 9.00 | ++++ (>150)
16 | CCCNCCOc1ccc(NS(=O)(=O)c2ccc(OC(F)(F)F)cc2)c(OC)n1.Cl [Example 2, N-[2-Methoxy-6-(2-propylamino-ethoxy)-pyridin-3-yl]-4-trifluoromethoxy-benzenesulfonamide×HCl] | 8.00 to 9.00 | + (between 10 and 50)
17 | CCCN1CCC(Oc2ccc(NS(=O)(=O)c3ccc(C(C)C)cc3)c(C)n2)C1.O=C(O)/C=C/C(=O)O (stereo not drawn) [Example 61, 4-Isopropyl-N-{2-methyl-6-[(1-propylpyrrolidin-3-yl)oxy]pyridin-3-yl}benzenesulfonamide (2E)-but-2-enedioate] | 8.00 to 9.00 | + (between 10 and 50)
18 | CCCNCCOc1cc(C)c(NS(=O)(=O)c2ccc([C@@H](C)CF)cc2)cn1 [Example 57, 4-((R)-2-Fluoro-1-methyl-ethyl)-N-[4-methyl-6-(2-propylamino-ethoxy)-pyridin-3-yl]-benzenesulfonamide×HCl] | 7.30 to 8.00 | ++ (between 50 and 100)
19 | CC(C)c1ccc(S(=O)(=O)Nc2ccc(OCCN(C)C)nc2)cc1 [Example 22, N-[6-(2-Dimethylamino-ethoxy)-pyridin-3-yl]-4-isopropyl-benzenesulfonamide×HCl] | 6.82 to 7.30 | –
20 | CCCNCCOc1ccc(NS(=O)(=O)c2ccc(C(C)C)cc2)cn1 [Example 23, 4-Isopropyl-N-[6-(2-propylamino-ethoxy)-pyridin-3-yl]-benzenesulfonamide×HCl] | 7.30 to 8.00 | + (between 10 and 50)
21 | CCCNCCOc1ccc(NS(=O)(=O)c2ccc(CCCF)cc2)c(OC)n1 [Example 1, 4-(3-Fluoro-propyl)-N-[2-methoxy-6-(2-propylamino-ethoxy)-pyridin-3-yl]-benzenesulfonamide×HCl] | > 9.00 | ++ (between 50 and 100)
22 | CCCNCCOc1ncc(NS(=O)(=O)c2ccc(OC(F)(F)F)cc2)c(OC)n1 [Example 21, N-[4-Methoxy-2-(2-propylamino-ethoxy)-pyrimidin-5-yl]-4-trifluoromethoxy-benzenesulfonamide] | 6.82 to 7.30 | ++ (between 50 and 100)
23 | CCCNCCOc1ccc(NS(=O)(=O)c2ccc(OCC(F)(F)F)cc2)c(OC)n1 [Example 10, N-[2-Methoxy-6-(2-propylamino-ethoxy)-pyridin-3-yl]-4-(2,2,2-trifluoro-ethoxy)-benzenesulfonamide×HCl] | 8.00 to 9.00 | ++++ (>150)
24 | CCCNCCOc1ccc(NS(=O)(=O)c2ccc(OCCF)cc2)c(OC)n1 [Example 8, 4-(2-Fluoro-ethoxy)-N-[2-methoxy-6-(2-propylamino-ethoxy)-pyridin-3-yl]-benzenesulfonamide×HCl] | 8.00 to 9.00 | ++++ (>150)
25 | COc1nc(OCCN2CCCC2)ccc1NS(=O)(=O)c1ccc(CCCF)cc1 [Example 15, 4-(3-Fluoro-propyl)-N-[2-methoxy-6-(2-pyrrolidin-1-yl-ethoxy)-pyridin-3-yl]-benzenesulfonamide] | 7.30 to 8.00 | + (between 10 and 50)
26 | CCCN(CCC)CCOc1ccc(NS(=O)(=O)c2ccc(C(C)C)cc2)cn1 [Example 24, N-[6-(2-Dipropylamino-ethoxy)-pyridin-3-yl]-4-isopropyl-benzenesulfonamide×HCl] | 7.30 to 8.00 | ++ (between 50 and 100)
27 | CCCNCCOc1ccc(NS(=O)(=O)c2ccc(OC(F)F)cc2)c(OC)n1 [Example 5, 4-Difluoromethoxy-N-[2-methoxy-6-(2-propylamino-ethoxy)-pyridin-3-yl]-benzenesulfonamide×HCl] | 8.00 to 9.00 | ++ (between 50 and 100)
28 | CCCNCCOc1ccc(NS(=O)(=O)c2ccc(OCC(F)F)cc2)c(OC)n1 [Example 9, 4-(2,2-Difluoro-ethoxy)-N-[2-methoxy-6-(2-propylamino-ethoxy)-pyridin-3-yl]-benzenesulfonamid×HCl] | 8.00 to 9.00 | ++++ (>150)
29 | COc1nc(OCCN2CCCC2)ccc1NS(=O)(=O)c1ccc(-c2cnco2)cc1 [Example 19, N-[2-Methoxy-6-(2-pyrrolidin-1-yl-ethoxy)-pyridin-3-yl]-4-oxazol-5-yl-benzenesulfonamide] | 7.30 to 8.00 | + (between 10 and 50)

Source: patent publication US8383641B2, “Aryloxyethylamine compounds suitable for treating disorders that respond to modulation of the dopamine D3 receptor” (Abbott GmbH & Co. KG, priority 2006, dated 2013)
